Experimental data: patent publication US10067145B2, “Method for removing genomically unstable IPS cells and synthetic peptide used therefor” (TOAGOSEI CO., LTD., priority 2013, dated 2018)
No end group written: not given here.

Experiments:
[1] = tested on: human iPS cell strain 201B7; experiment: Evaluation of calreticulin expression inducing activity of synthetic peptides (immunofluorescence antibody assay), genomically stable iPS cells; assay type: cell-based; settings: peptide 10 μM in mTeSR 1 medium, 5 days, medium replaced every day; anti-calreticulin antibody, confocal laser microscope
Description: (§1) In the following Examples, iPS cells were used as an example of pluripotent stem cells. Specifically, cells used for tests were a genomically stable (specifically without a chromosome aberration) human iPS cell strain (clone: 201B7, hereinafter also merely referred to as 201B7) and a human iPS cell strain (clone: 201B2 hereinafter also merely referred to as 201B2) containing genomically unstable (specifically, chromosome 12 is triploid (trisomy)) cells. Both 201B7 and 201B2 are clones of iPS cells established from the same human fibroblasts (source: Takahashi K et al., Cell, 131, 861-872 (2007)). The iPS cells were provided by the Center for iPS Cell Research and Application, Kyoto University. […]
(§2) A primary antibody diluted solution prepared by adjusting a primary antibody, an anti-calreticulin monoclonal [FMC75] antibody (murine, available from Abeam, Cat No. ab22683, Lot No. GR56669-4), to a final concentration of 4×10^−3 mg/mL in 1% BSA/PBS (−) (PBS (−) containing 1% BSA) was added to the culture vessel of the iPS cells, and the mixture was left to stand overnight at 4° C. or 2 hours at room temperature. […] Thereafter, mounting was carried out with a DAPI (4′,6-diamidino-2-phenylindole)-containing mounting medium (available from Life Technologies) and a cover glass and fluorescence was observed under a confocal laser microscope. […]

[2] = tested on: human iPS cell strain 201B2 (chromosome 12 trisomy); experiment: Evaluation of calreticulin expression inducing activity of synthetic peptides (immunofluorescence antibody assay), genomically unstable iPS cells; assay type: cell-based; settings: peptide 10 μM in mTeSR 1 medium, 5 days, medium replaced every day; anti-calreticulin antibody, confocal laser microscope
Description: as §1, §2

Question: Which “expression level of calreticulin in 201B7 (fluorescence of the label detecting calreticulin) compared to cells without addition of peptides” value [1] does the source give for “KKRTLRKNDRKKR GG CRAKAGDPC (KKRTLRKNDRKKRGGCRAKAGDPC-NH2; cysteine pairing not given here) [sample 1, linear synthetic calreticulin expression inducing peptide, 24 residues]” here?
Answer: almost no increase

Question: And the “expression level of calreticulin in 201B2 (fluorescence of the label detecting calreticulin) compared to cells without addition of peptides” value [2]?
Answer: significantly increased
